Experiments:
Format in all cases: cell-based
A549 = experiment: Cytotoxicity against human A549 cell line by MTT assay
[1] = Cytotoxicity against human KATO3 cell line by MTT assay
HL-60 = experiment: Cytotoxicity against human HL60 cell line by MTT assay

Measured: IC50

C[C@@H]1O[C@@H](O[C@H]2[C@H](O[C@H]3CO[C@@H](O[C@H]4CC[C@]5(C)[C@H]6CC[C@]78OC(=O)[C@@]9(CC[C@](C)(CO)C[C@H]97)[C@H](O)C[C@@]8(C)[C@]6(C)CC[C@H]5C4(C)C)[C@H](O[C@@H]4O[C@H](CO)[C@@H](O)[C@H](O)[C@H]4O)[C@H]3O)O[C@H](CO)[C@@H](O)[C@@H]2O)[C@H](O)[C@H](O)[C@H]1O [ARDISIANOSIDE I]
> 100 µM: all assays above
